Experiments:
AR [1] = assay: Western blot of AR protein levels; format: cell-based; conditions: 22Rv1 cells, 250 nM, 72 hours
Protocol: (§1) Total proteins were subjected to 10 or 14% SDS-PAGE, and electrophoretically transferred to nitrocellulose membrane. The membranes were incubated with specific primary antibodies, and subsequently incubated with secondary antibody conjugated with peroxidase (Bio-rad, Hercules, CA). The signal was detected using the chemiluminescent detection system (PIERCE).

AR [2] = assay: AR mRNA expression by real-time RT-qPCR in 22Rv1 cells; format: cell-based; conditions: 200 nM, 48 hours, vs control before treatment
Protocol: (§2) Prostate cancer cell line 22Rv1 was treated with KPT-8602 and the effect of the treatment on the expression of AR and AR splice variant AR-v7 was determined. 22Rv1 cells were treated with 200 nM KPT-8602 for 48 hours and the mRNA expression levels of AR and AR-v7 before (control) and after treatment were measured by real-time RT-qPCR using High Capacity cDNA Reverse Transcription Kit and SYBR Green Master Mixture from Applied Biosystems (Waltham, MA).

[3] = system: Relapsed/Refractory Metastatic Castration Resistant Prostate Cancer (mCRPC); assay: Clinical trial in relapsed/refractory mCRPC, KPT-8602 alone and with abiraterone; format: in vivo, human
Protocol: • 1. Histologically confirmed adenocarcinoma of the prostate with archival tumor tissue available for molecular analyses. • 2. Surgically or medically castrated, with testosterone levels of <50 ng/dL (<2.0 nM). • 3. Documented mCRPC progression as assessed by the Investigator with one of the following: • a. Prostate specific antigen (PSA) progression defined by a minimum of 3 rising PSA levels (at approximately Day −30 and approximately Day −45) with an interval of >1 week between each determination. The PSA values at the Screening visit should be >2 μg/L (>2 ng/mL); patients on systemic glucocorticoids for control of symptoms must have documented PSA progression by Prostate Cancer Working Group 3 (PCWG3) while on systemic glucocorticoids prior to commencing C1D1 of treatment. • b. Radiographic progression of soft tissue disease by modified RECIST criteria 1.1 or of bone metastasis with 2 or more documented new bone lesions on a bone scan with or without PSA progression. • 4. Initial response (per modified PCWG3 Guidelines) to second generation anti-hormonal therapy (examples: abiraterone, enzalutamide, TAK 700), but later relapsed. Disease relapse would be defined as progressive disease at the time of entry per inclusion criterion 3. • 5. Zero to 2 previous taxane-based chemotherapy regimens. • 6. At least 2 weeks from completion of any radiotherapy including a single fraction of radiotherapy for the purposes of palliation (confined to one field) is permitted. • 7. Patients should not be transfusion dependent. • 8. Albumin>2.5 g/dL. • 9. Adequate hematopoietic function: ANC≥1000/mm^3, hemoglobin (Hb)≥9.0 g/dL, and platelet count≥100,000/mm^3. • 10. Eastern Cooperative Oncology Group (ECOG) performance status of ≤1. • 11. Life expectancy of ≥4 months. Additional Criteria for Combination Therapy Patients (KPT-8602 and Abiraterone) • 12. Patients currently receiving treatment with abiraterone and appropriate to continue in the opinion of the Investigator (some patients may be progressing). Patients must also have been on and continue on a stable dose of corticosteroids (prednisone or dexamethasone) for 30 days prior to C1D1. B. Patient Characteristics and Demographics
Patients treated with KPT-8602 alone received oral KPT-8602 for 5 days per week (QDx5) at dose levels of 20 and 30 mg. Patients treated with KPT-8602 and abiraterone received oral KPT-8602 for 5 days per week (QDx5) at dose levels of 20 and 30 mg and the dose and schedule of abiraterone and corticosteroids that they were receiving at the time of enrollment. For example, a typical dose of ZYTIGA (abiraterone acetate) is 1000 mg orally once daily with prednisone 5 mg orally twice daily. A full cycle was 28 days long. A representative cycle of KPT-8602 dosing is oral administration 5 out of 7 consecutive days in a week for a 28-day cycle (e.g., Days 1-5, 8-12, 15-19 and 22-26 of each 28-day cycle).
Responses were assessed using RECIST v 1.1 criteria once every 28-day cycle. PR: Partial Response, SD: Stable Disease, PD: Progressive Disease, DCR: Disease Control Rate. 7 Non-evaluable patients: 2AE, 2 patient decision, 2 physician decision, 1 patient non-compliant.
All patients had their disease assessed per modified PCWG3 Guidelines including RECIST v1.1 (see below) by the following tests at pre-determined the time points. • PSA: Disease specific clinical lab assessment • Testosterone: Disease specific clinical lab assessment • Bone scan and CT (or MRI) scan of the abdomen and pelvis (RECIST v.1.1): Patients will receive a bone scan to monitor and assess bone disease progression and CT (or MRI) of the abdomen and pelvis (and chest, if indicated) to monitor and assess soft tissue disease progression per PCWG3 including RECIST v.1.1. […]

ARv = assay: Western blot of ARv protein levels; format: cell-based; conditions: 22Rv1 cells, 250 nM, 72 hours
Protocol: as §1

AR-v7 = AR-v7 mRNA expression by real-time RT-qPCR in 22Rv1 cells; format: cell-based; conditions: 200 nM, 48 hours, vs control before treatment
Protocol: as §2

[4] = system: xenograft samples derived from 22Rv1 cells; assay: Immunohistochemistry of 22Rv1 xenograft samples; format: in vivo, mice
Source text: Increased nuclear staining of tumor suppressor proteins Rb, p21, p53, APC and SMAD4 were also observed in samples treated with KPT-8602.
A tissue microarray (TMA) was constructed with tumor samples collected from 22Rv1 mouse prostate cancer cell. Paraffin sections of the TMA were processed ans stained with antibodies using a Biogenex 16000 automated stainer. Digital images of the slides were obtained through an Aperio AT Turbo scanner 20×. The following antibodies were used for immunohistochemistry staining: Cleaved Caspase 3 (Cell Singaling Technology, 9661), p21 (Cell Signaling Technology, 2947), APC (Abcam, ab15270), Ki67 (Cell Marque, 275R-18), Rb (Abcam, ab181616, p53 (Santa Cruz, sc-126), and SMAD4 (Santa Cruz, sc-7966).

[5] = system: 22Rv1 prostate cancer xenograft; assay: 22Rv1 prostate cancer xenograft model in CB.17 SCID mice; format: in vivo; conditions: 15 mg/kg, QDx5/week
Protocol: The effect of KPT-8602 (15 mg/kg, QDx5/week) in a 22Rv1 prostate cancer xenograft model in CB.17 SCID mice was evaluated. Mouse weights and tumor size were monitored three times a week. Each mouse was euthanized at the end of study (Day 35) or when tumor volume reached 1000 mm^3, whichever comes first.

[6] = RECIST v1.1, evaluable patients, KPT-8602 20 and 30 mg QDx5

NC(=O)/C(=C/n1cnc(-c2cc(C(F)(F)F)cc(C(F)(F)F)c2)n1)c1cncnc1 [KPT-8602]
protein levels of AR (AR [1]): significantly decreased | mRNA expression of AR (AR [2]): significantly inhibited | median PFS ([3]; Kaplan-Meier analysis, evaluable patients): 5.9 months | DCR (PR + SD) SD ≥ 8 weeks, % of patients [3, 6]: 82% | DCR (PR + SD) SD ≥ 8 weeks, number of patients [3, 6]: 9 | DCR (PR + SD) SD ≥ 16 weeks, % of patients [3, 6]: 55% | DCR (PR + SD) SD ≥ 16 weeks, number of patients [3, 6]: 6 | PD (Progressive Disease), % of patients [3, 6]: (18%) | PD (Progressive Disease), number of patients [3, 6]: 2 | PR (Partial Response), % of patients [3, 6]: (9%) | PR (Partial Response), number of patients [3, 6]: 1 | Median ToT (Time on Treatment) ([3]; evaluable patients, 20 mg KPT-8602): 96 days | Median ToT (Time on Treatment) ([3]; evaluable patients, 30 mg KPT-8602): 134 days | Median ToT (Time on Treatment) ([3]; evaluable patients, all doses (20 and 30 mg KPT-8602)): 96 days | protein levels of ARv (ARv): significantly decreased | mRNA expression of AR-v7 (AR-v7): significantly inhibited | nuclear staining of tumor suppressor protein APC [4]: Increased | nuclear staining of tumor suppressor protein Rb [4]: Increased | nuclear staining of tumor suppressor protein SMAD4 [4]: Increased | nuclear staining of tumor suppressor protein p21 [4]: Increased | nuclear staining of tumor suppressor protein p53 [4]: Increased | apoptotic molecule (Cleaved Caspase 3) ([4]; compared to vehicle controls): increased | cell proliferation marker (Ki67) ([4]; compared to vehicle controls): decreased | survival [5]: prolongs | tumor growth [5]: significantly inhibits | median OS (overall survival) ([5]; Kaplan-Meier, end of study Day 35, vehicle 20 days): undefined | % TGI (tumor growth inhibition) on Day 16 ([5]; compared to vehicle): 87%
